Tests used:
Type in all cases: cell-based
[1] = system: HCV replicon S52-Feo (genotype 3a); test: Anti-HCV activity using HCV replicon S52-Feo (genotype 3a) in Huh 7.5.1 cells, luciferase readout; conditions: Hepatitis C virus, 72 h; Huh 7.5.1 cells with S52-Feo replicon, 3 days, firefly luciferase; read-out: HCV wt. GT-3a
[2] = system: JFH5a-Rluc-ad34 virus (HCV GT-2a); test: Anti-HCV activity using HCVcc (JFH5a-Rluc-ad34 virus) in Huh 7.5.1 cells, Renilla luciferase readout; conditions: Hepatitis C virus, GT2A, Huh-7.5.1, 72 h, read-out: HCV wt. GT-2a
Method: <Experimental Example 1> Measurement of Anti-HCV Activity of Compounds of Examples Using HCVcc
Step 1: Cell Line and Cell Culture
Huh 7.5.1 cells were grown in Dulbecco's Modified Eagle's medium (DMEM; Gibco) supplemented with antibiotics (100 U/mL penicillin, 10 μg/mL streptomycin) and 10% heat-inactivated fetal bovine serum (ΔFBS; PEAK) in a CO2 incubator at 37° C. with […].
Huh7.5.1 cells were transfected with in vitro transcription RNA of JFH5a-Rluc-ad34, a derivative of JFH1 with adaptive mutations in E2 and p7 regions, by electroporation. JFH5a-Rluc-ad34 virus contains Renilla luciferase (Rluc), which is convenient for virus proliferation assay. The cell culture medium containing HCV was collected 3-5 days after the electroporation and then filtered through a […] pore size filter.
Step 3: Antiviral Activity Test Using Infectious HCV Particles
Huh 7.5.1 cells were inoculated with JFH5a-Rluc-ad34 virus and incubated for 4 hours. Four hours after the virus inoculation, the Huh7.5.1 cells infected with HCV were cultured in the medium containing the compound of examples serially diluted. Three days later, the cells were harvested and the intracellular luciferase activity was measured using Renilla luciferase assay system (Promega). Finally, the luciferase activity was normalized with those obtained from the negative control cells (mock-treated cells).

[3] = system: HCV genotype 1b replicon with NS5A L31V mutation; test: Transiently transfected assay of genotype 1b resistance mutant RNA L31V; conditions: Hepatitis C virus, Huh-7.5.1, 72 h, read-out: HCV Mutation L31V
Text: (§1) <Experimental Example 3> Transiently Transfected Assay of Genotype 1b Resistance Mutant RNAs
(§2) Replicon genomes substituted with Y93H, L31V and L31V+Y93H (double mutant), the resistance mutants to Daclatasvir with mutations at the NS5A protein domain 1.
(§3) These HCV resistance mutant genomes were linearized with scal restriction enzyme, and then the mutated HCV RNA was synthesized through in vitro transcription. Huh 7.5.1 cells were individually electroporated with HCV RNA with resistant mutations and plated in a 12 well plate. After 4 hours, Huh7.5.1 cells were seeded in DMEM containing the compounds of examples serially diluted for 3 days. Three days later, the cells were harvested and the intracellular luciferase activity was measured. The luciferase activity was normalized with those obtained from the negative control cells (mock-treated cells).

[4] = system: HCV genotype 1b replicon with NS5A Y93H mutation; test: Transiently transfected assay of genotype 1b resistance mutant RNA Y93H; conditions: Hepatitis C virus, Huh-7.5.1, 72 h, read-out: HCV Mutation Y93H
Text: as §1, §2, §3

[5] = system: HCV replicon NK5.1-Gluc (genotype 1b); test: Anti-HCV activity using HCV replicon NK5.1-Gluc (genotype 1b) in Huh 7.5.1 cells, luciferase readout; conditions: Hepatitis C virus, 72 h; Huh 7.5.1 cells with NK5.1-Gluc replicon, 3 days, Gaussia luciferase; read-out: HCV wt. GT-1b
[6] = system: HCV genotype 1b replicon with NS5A L31V+Y93H (double mutant); test: Transiently transfected assay of genotype 1b resistance mutant RNA L31V+Y93H (double mutant); conditions: Hepatitis C virus, Huh-7.5.1, 72 h, read-out: HCV Mutation L31V + Y93H
Text: as §1, §2, §3

In the case of `CCCCCC1(CCCCC)c2cc(NC(=O)[C@@H]3CCCN3C(=O)[C@H](NC(=O)OC)c3ccccc3)ccc2-c2ccc(NC(=O)[C@@H]3CCCN3C(=O)[C@H](NC(=O)OC)c3ccccc3)cc21` [Example 11, dimethyl ((1R,1′R)-((2S,2′S)-(((9,9-dipentyl-9H-fluorene-2,7-diyl)bis(azanediyl))bis(carbonyl))bis(pyrrolidine-2,1-diyl))bis(2-oxo-1-phenylethane-2,1-diyl))dicarbamate], the EC50 [1] is reported as 0.01 to 0.1 nM, the EC50 [2] is reported as 1 to 100 nM and the EC50 [3] is reported as 0.001 to 0.01 nM. The EC50 [4] was 1 to 100 nM, the EC50 [5] was 0.001 to 0.01 nM and the EC50 [6] was 1 to 100 nM.

Work on `CCCCC1(CCCC)c2cc(NC(=O)[C@@H]3CCCN3C(=O)[C@H](NC(=O)OC)c3ccccc3)ccc2-c2ccc(-c3cnc([C@@H]4C[C@H](COC)CN4C(=O)[C@@H](NC(=O)OC)C(C)C)[nH]3)cc21` [Example 41, methyl ((S)-1-((2S,4S)-2-(5-(9,9-dibutyl-7-((S)-1-((R)-2-((methoxycarbonyl)amino)-2-phenylacetyl)pyrrolidine-2-carboxyamido)-9H-fluorene-2-yl)-1H-imidazole-2-yl)-4-(methoxymethyl)pyrrolidine-1-yl)-3-methyl-1-oxobutane-2-yl)carbamate] yielded an EC50 [1] of 0.1 to 1 nM, an EC50 [2] of 0.01 to 0.1 nM and an EC50 [3] of 0.001 to 0.01 nM. For the same compound, the EC50 [4] was 0.01 to 0.1 nM, the EC50 [5] was 0.01 to 0.1 nM and the EC50 [6] was 1 to 100 nM.

In the case of `CCC1(CC)c2cc(NC(=O)[C@@H]3CCCN3C(=O)[C@H](NC(=O)OC)c3ccccc3)ccc2-c2ccc(NC(=O)[C@@H]3CCCN3C(=O)[C@H](NC(=O)OC)c3ccccc3)cc21` [Example 30, dimethyl (1R,1′R)-2,2′-((2S,2′S)-2,2′-(9,9-diethyl-9H-fluorene-2,7-diyl)bis(azanediyl)bis(oxomethylene)bis(pyrrolidine-2,1-diyl))bis(2-oxo-1-phenylethane-2,1-diyl)dicarbamate], the EC50 [1] is reported as 0.1 to 1 nM, the EC50 [2] is reported as 0.1 to 1 nM and the EC50 [3] is reported as 0.1 to 1 nM. The EC50 [4] was 1 to 100 nM, the EC50 [5] was 0.01 to 0.1 nM and the EC50 [6] was greater than 100 nM.

Compound `CCCC1(CCC)c2cc(NC(=O)[C@@H]3CCCN3C(=O)[C@H](NC(=O)OC)c3ccccc3)ccc2-c2ccc(-c3cnc([C@@H]4CCCN4C(=O)[C@@H](NC(=O)OC)C(C)C)[nH]3)cc21` [Example 3, methyl ((S)-1-((S)-2-(5-(9,9-dipropyl-7-((S)-1-((R)-2-((methoxycarbonyl)amino)-2-phenylacetyl)pyrrolidine-2-carboxyamido)-9H-fluorene-2-yl)-1H-imidazole-2-yl)pyrrolidine-1-yl)-3-methyl-1-oxobutane-2-yl)carbamate] has an EC50 [1] of 0.01 to 0.1 nM, an EC50 [2] of 0.01 to 0.1 nM and an EC50 [3] of 0.01 to 0.1 nM. The EC50 [4] was 0.01 to 0.1 nM, the EC50 [5] was 0.01 to 0.1 nM and the EC50 [6] was 1 to 100 nM.

For `CCCCC1(CCCC)c2cc(NC(=O)[C@@H]3CC4(CC4)CN3C(=O)[C@H](NC(=O)OC)c3ccccc3)ccc2-c2ccc(NC(=O)[C@@H]3C[C@H]4CCC[C@H]4N3C(=O)[C@H](NC(=O)OC)c3ccccc3)cc21` [Example 25, methyl ((R)-2-((S)-6-((9,9-dibutyl-7-((2S,3aR,6aR)-1-((R)-2-((methoxycarbonyl)amino)-2-phenylacetyl)octahydrocyclopenta[b]pyrrole-2-carboxyamido)-9H-fluorene-2-yl)carbamoyl)-5-azaspiro[2.4]heptane-5-yl)-2-oxo-1-phenylethyl)carbamate], the EC50 [1] was 0.01 to 0.1 nM, the EC50 [2] was 1 to 100 nM and the EC50 [3] was 0.001 to 0.01 nM. It also gave an EC50 [4] of 1 to 100 nM, an EC50 [5] of 0.001 to 0.01 nM and an EC50 [6] of 1 to 100 nM.

`CCCCC1(CCCC)c2cc(NC(=O)[C@@H]3CC4(CN3C(=O)[C@H](NC(=O)OC)c3ccccc3)OCCO4)ccc2-c2ccc(NC(=O)[C@@H]3CC4(CN3C(=O)[C@H](NC(=O)OC)c3ccccc3)OCCO4)cc21` [Example 15, dimethyl ((1R,1′R)-((8S,8′S)-(((9,9-dibutyl-9H-fluorene-2,7-diyl)bis(azanediyl))bis(carbonyl))bis(1,4-dioxa-7-azaspiro[4.4]nonane-8,7-diyl))bis(2-oxo-1-phenylethane-2,1-diyl))dicarbamate] showed an EC50 [1] of 0.1 to 1 nM, an EC50 [2] of 1 to 100 nM and an EC50 [3] of 0.001 to 0.01 nM. For the same compound, the EC50 [4] was 0.01 to 0.1 nM, the EC50 [5] was 0.001 to 0.01 nM and the EC50 [6] was 0.01 to 0.1 nM.

Compound `CCCCC1(CCCC)c2cc(NC(=O)[C@@H]3C[C@@H](O)CN3C(=O)[C@H](NC(=O)OC)c3ccccc3)ccc2-c2ccc(NC(=O)[C@@H]3C[C@@H](O)CN3C(=O)[C@H](NC(=O)OC)c3ccccc3)cc21` [Example 29, dimethyl ((1R,1′R)-((3R,3′R,5S,5′S)-(((9,9-dibutyl-9H-fluorene-2,7-diyl)bis(azanediyl))bis(carbonyl))bis(3-hydroxypyrrolidine-5,1-diyl))bis(2-oxo-1-phenylethane-2,1-diyl))dicarbamate] has an EC50 [1] of 0.01 to 0.1 nM, an EC50 [2] of 0.1 to 1 nM and an EC50 [3] of 0.01 to 0.1 nM. The EC50 [4] was 0.01 to 0.1 nM, the EC50 [5] was 0.001 to 0.01 nM and the EC50 [6] was 0.01 to 0.1 nM.

`CCCCC1(CCCC)c2cc(NC(=O)[C@@H]3C[C@H](COC)CN3C(=O)[C@H](NC(=O)OC)c3ccccc3)ccc2-c2ccc(-c3cnc([C@@H]4C[C@H](COC)CN4C(=O)[C@@H](NC(=O)OC)C(C)C)[nH]3)cc21` [Example 40, methyl ((S)-1-((2S,4S)-2-(5-(9,9-dibutyl-7-((2S,4S)-1-((R)-2-((methoxycarbonyl)amino)-2-phenylacetyl)-4-(methoxymethyl)pyrrolidine-2-carboxyamido)-9H-fluorene-2-yl)-1H-imidazole-2-yl)-4-(methoxymethyl)pyrrolidine-1-yl)-3-methyl-1-oxobutane-2-yl)carbamate] gave an EC50 [1] of 0.1 to 1 nM, an EC50 [2] of 0.01 to 0.1 nM and an EC50 [3] of 0.001 to 0.01 nM. For the same compound, the EC50 [4] was 0.01 to 0.1 nM, the EC50 [5] was 0.001 to 0.01 nM and the EC50 [6] was 1 to 100 nM.

`CCCCC1(CCCC)c2cc(NC(=O)[C@@H]3C[C@@H](OC(=O)CN4CCOCC4)CN3C(=O)[C@H](NC(=O)OC)c3ccccc3)ccc2-c2ccc(NC(=O)[C@@H]3C[C@@H](OC(=O)CN4CCOCC4)CN3C(=O)[C@H](NC(=O)OC)c3ccccc3)cc21` [Example 33, (3R,3′R,5S,5S,52R)-5,5′-(9,9-dibutyl-9H-fluorene-2,7-diyl)bis(azanediyl)bis(oxomethylene)bis(1-((R)-2-(methoxycarbonylamino)-2-phenylacetyl)pyrrolidine-5,3-diyl) bis(2-morpholinoacetate)] showed an EC50 [1] of 0.1 to 1 nM, an EC50 [2] of 0.1 to 1 nM and an EC50 [3] of 0.01 to 0.1 nM. The EC50 [4] was 0.01 to 0.1 nM, the EC50 [5] was 0.01 to 0.1 nM and the EC50 [6] was 0.1 to 1 nM.

`CCCCC1(CCCC)c2cc(NC(=O)[C@@H]3CC(F)(F)CN3C(=O)[C@H](NC(=O)OC)c3ccccc3)ccc2-c2ccc(NC(=O)[C@@H]3C[C@@H]4CCC[C@@H]4N3C(=O)[C@H](NC(=O)OC)c3ccccc3)cc21` [Example 24] was tested, and the EC50 [3] was 0.001 to 0.01 nM, the EC50 [4] was 1 to 100 nM and the EC50 [6] was 1 to 100 nM.

`CCCCC1(CCCC)c2cc(NC(=O)[C@@H]3CC(F)(F)CN3C(=O)[C@H](NC(=O)OC)c3ccccc3)ccc2-c2ccc(NC(=O)[C@@H]3CC4(CC4)CN3C(=O)[C@H](NC(=O)OC)c3ccccc3)cc21` [Example 23] was tested, and the EC50 [3] was 0.001 to 0.01 nM, the EC50 [4] was 1 to 100 nM and the EC50 [6] was greater than 100 nM.

Work on `CCCCC1(CCCC)c2cc(NC(=O)[C@@H]3CC(F)(F)CN3C(=O)[C@H](NC(=O)OC)c3ccccc3)ccc2-c2ccc(NC(=O)[C@@H]3CC(F)(F)CN3C(=O)[C@H](NC(=O)OC)c3ccccc3)cc21` [Example 20, dimethyl ((1R,1′R)-((5S,5′S)-(((9,9-dibutyl-9H-fluorene-2,7-diyl)bis(azanediyl))bis(carbonyl))bis(3,3-difluoropyrrolidine-5,1-diyl))bis(2-oxo-1-phenylethane-2,1-diyl))dicarbamate] yielded an EC50 [1] of 0.01 to 0.1 nM, an EC50 [2] of 1 to 100 nM and an EC50 [3] of 0.01 to 0.1 nM. It also gave an EC50 [4] of 1 to 100 nM and an EC50 [5] of 0.001 to 0.01 nM.
